ChEMBL document CHEMBL1122374 (J Med Chem, 1983)
pKi: −log10 of the molar value.

How the values were obtained:
Adenosine deaminase [1] = target: T1, Adenosine deaminase (Bos taurus, UniProt P56658); assay: In vitro inhibition of adenosine deaminase in calf intestinal mucosa; assay type: tissue-based
T1 sequence (P56658 whole entry): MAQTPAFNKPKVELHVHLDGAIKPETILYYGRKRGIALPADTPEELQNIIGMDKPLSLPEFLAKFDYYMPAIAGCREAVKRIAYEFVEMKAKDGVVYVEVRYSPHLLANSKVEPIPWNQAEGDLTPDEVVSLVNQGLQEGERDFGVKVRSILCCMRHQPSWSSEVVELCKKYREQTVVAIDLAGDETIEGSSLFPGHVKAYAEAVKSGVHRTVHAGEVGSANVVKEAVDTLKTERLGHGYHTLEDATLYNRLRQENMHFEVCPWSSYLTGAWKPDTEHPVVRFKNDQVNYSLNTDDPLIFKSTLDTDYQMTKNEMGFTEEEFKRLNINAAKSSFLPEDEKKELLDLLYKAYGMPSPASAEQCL

Adenosine deaminase [2] = target: T2, Adenosine deaminase (Homo sapiens, UniProt P00813); assay: The compound was tested in vitro for inhibition of human erythrocytic adenosine deaminase
T2 sequence (P00813 whole entry): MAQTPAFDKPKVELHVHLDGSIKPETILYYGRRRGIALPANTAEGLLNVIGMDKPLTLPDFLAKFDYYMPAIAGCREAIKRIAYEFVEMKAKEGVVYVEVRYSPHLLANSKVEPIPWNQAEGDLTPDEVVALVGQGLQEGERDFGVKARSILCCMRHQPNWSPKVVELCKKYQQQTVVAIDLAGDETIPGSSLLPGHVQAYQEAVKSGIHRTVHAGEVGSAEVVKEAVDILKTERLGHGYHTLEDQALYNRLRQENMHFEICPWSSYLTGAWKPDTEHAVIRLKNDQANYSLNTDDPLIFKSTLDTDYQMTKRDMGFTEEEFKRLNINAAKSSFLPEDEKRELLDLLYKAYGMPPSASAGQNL

| Compound | pKi (Adenosine deaminase [1]) | pKi (Adenosine deaminase [2]) |
| --- | --- | --- |
| CC1=NC[C@@H](O)c2ncn([C@H]3C[C@H](O)[C@@H](CO)O3)c2N1 | 7.80 | – |
| OCCOCn1cnc2c1NC=NCC2O (stereo not drawn) | 7.01 | – |
| OC[C@H]1O[C@@H](n2cnc3c2N=CNC[C@H]3O)[C@H](O)[C@@H]1O [COFORMYCIN] | – | 11.00 |
